Data from patent US20170290774A1, “NEUROKININ-1 RECEPTOR ANTAGONIST COMPOSITION FOR TREATMENT OF DISEASES AND CONDITIONS OF THE RESPIRATORY TRACT” (PLUS VITECH, S.L., priority 2014, published 2017).

Test system: Fibrosis
Assay: Area occupied by fibrosis in hematoxylin/eosin sections of sodium hypochlorite aerosol-treated rabbits
Assay type: in vivo, New Zealand albino rabbits
Description: It is known that the factors TGF-α, TGF-β 1, TGF-β 2, TGF-β 3, SPARC, MMP-3; MMP-7, MMP-9, MMP-11, MMP-13 and MMP-14, TGF-β, NF-kB, EGF, MMP-9, VEGF and TNF-α which are produced by lung cells (pneumocytes, fibroblasts and vascular endothelial cells) and inflammatory cells (macrophages, lymphocytes and polymorphonuclear leukocytes) are involved in the pathophysiology and development of said respiratory tract diseases. […] Herein, 27 New Zealand albino rabbits (New Zealand White Rabbit) with an initial average weight about 3 kg were used in this example. All subjects were administered an aerosol of a solution consisting of a mixture of water and sodium hypochlorite (35 g sodium hypochlorite per liter of water) at a rate of 5 mL of said solution by inhalation three times a day for 7 days (days 1 to 7 of experimentation). Subsequently, from days 3 to 7, a group of 3 rabbits (Group 1) was administered an oral dose of 10 mg/kg body weight per day, another group of 3 rabbits (Group 2) was administered an oral dose of 40 mg/kg body weight per day, a third group (Group 3) was administered an oral dose of 80 mg/kg body weight per day and a fourth group (Group 4) was administered an oral dose of 100 mg/kg body weight per day. […] This mixture was administered as an aerosol by inhalation, also from days 3 to 7, to a group of 3 rabbits (group 5) at a dose of 0.05 mg/kg body weight per day, to another group of three rabbits (Group 6) at a dose of 0.1 mg/kg body weight per day, to another group of three rabbits (Group 7) at a dose of 0.2 mg/kg body weight per day and to another group of three rabbits (Group 8) at a dose of 0.4 mg/kg body weight per day. A placebo consisting only of olive oil was administered from days 3 to 7 to a control group of 3 rabbits (placebo group). In parallel, 3 rabbits were kept under identical conditions but were not administered any treatment nor the aforementioned sodium hypochlorite solution (control group). […] On day 7 of the experiment all animals were euthanized and necropsied. […] Samples were taken at the peripheral level of the lung parenchyma, just below the pleural surface. Tissue samples were also taken from the nasal cavity, pharynx, larynx and bronchi. Immunohistochemistry studies were performed for all samples to evaluate the levels of the markers TGF-α, TGF-β 1, TGF-β 2, TGF-β 3 SPARC, MMP-3; MMP-7, MMP-9, MMP-11, MMP-14, TGF-β, TNF-α and VEGF. The samples were then allowed to cool to room temperature over 10 minutes. Endogenous peroxidase activity was blocked by treatment with 3% hydrogen peroxide over 30 min at room temperature. […] In order to verify the expression of NK1 receptors, the cell samples were incubated in the presence of anti-NK1 antibodies ([…], Sigma-Aldrich) diluted 1:1000 at 4° C. overnight. After this time they were washed in 0.05M Tris buffer at room temperature. Subsequently, Envision System-HRP (Dako) reagents were added for 30 min at room temperature. Once this time had expired, the samples were again washed with 0.05 M Tris buffer, and immunoreactivity was visualized by light microscopy with a chromogenic solution with 3,3'-diaminobenzidine (DAB+; Dako, USA). In order to differentiate the cell nuclei, these were lightly stained with haematoxylin. Samples that were not incubated with the primary antibody, but wherein this was replaced by a non-immune serum were used as negative controls. In order to evaluate markers in these immunohistochemical assays, specific primary antibodies were used against them at a concentration 1:1000, as detailed in Table 12. Furthermore, for each of the sampled sections were placed on slides and stained with haematoxylin-eosin before subsequently being deparaffinised by immersion in xylene and then rehydrated through immersion in a series of solutions containing decreasing concentrations of ethanol and, finally, immersing them in water, eosin (20 seconds) and hematoxylin (40 seconds). All experiments were performed in sextuplicate. […]

## C[C@@H](OC1OCCN(Cc2nc(=O)[nH][nH]2)C1c1ccc(F)cc1)c1cc(C(F)(F)F)cc(C(F)(F)F)c1 (stereo in doubt) [Aprepitant, 5-([(2R,3S)-2-((R)-1-[3,5-bis(trifluoromethyl)phenyl]ethoxy)-3-(4-fluorophenyl)morpholino]methyl)-1H-1,2,4-triazol-3(2H)-one]
Bronchial tissue, Group 1, oral 10 mg/kg per day
  Percent increase in Fibrosis with respect to the control group: 2,500.10%
Bronchial tissue, Group 2, oral 40 mg/kg per day
  Percent increase in Fibrosis with respect to the control group: 2,000.00%
Bronchial tissue, Group 3, oral 80 mg/kg per day
  Percent increase in Fibrosis with respect to the control group: 1,500.00%
Bronchial tissue, Group 4, oral 100 mg/kg per day
  Percent increase in Fibrosis with respect to the control group: 1,000.00%
Bronchial tissue, Group 5
  % Med G5/C: percent increase in Fibrosis with respect to the control group: 2,000.00%
Bronchial tissue, Group 6
  % Med G6/C: percent increase in Fibrosis with respect to the control group: 1,000.00%
Bronchial tissue, Group 7
  % Med G7/C: percent increase in Fibrosis with respect to the control group: 500.00%
Bronchial tissue, Group 8
  % Med G8/C: percent increase in Fibrosis with respect to the control group: 100.50%
Laryngeal tissue, Group 1, oral 10 mg/kg per day
  Percent increase in Fibrosis with respect to the control group: 250.50%
Laryngeal tissue, Group 2, oral 40 mg/kg per day
  Percent increase in Fibrosis with respect to the control group: 225.70%
Laryngeal tissue, Group 3, oral 80 mg/kg per day
  Percent increase in Fibrosis with respect to the control group: 200.57%
Laryngeal tissue, Group 4, oral 100 mg/kg per day
  Percent increase in Fibrosis with respect to the control group: 150.70%
Laryngeal tissue, Group 5, inhalation 0.05 mg/kg per day
  Percent increase in Fibrosis with respect to the control group: 375.50%
Laryngeal tissue, Group 6, inhalation 0.1 mg/kg per day
  Percent increase in Fibrosis with respect to the control group: 275.45%
Laryngeal tissue, Group 7, inhalation 0.2 mg/kg per day
  Percent increase in Fibrosis with respect to the control group: 200.60%
Laryngeal tissue, Group 8, inhalation 0.4 mg/kg per day
  Percent increase in Fibrosis with respect to the control group: 125.40%
Lung tissue, Group 1, oral 10 mg/kg per day
  Percent increase in Fibrosis with respect to the control group: 1,272.22%
Lung tissue, Group 2, oral 40 mg/kg per day
  Percent increase in Fibrosis with respect to the control group: 683.33%
Lung tissue, Group 3, oral 80 mg/kg per day
  Percent increase in Fibrosis with respect to the control group: 611.11%
Lung tissue, Group 4, oral 100 mg/kg per day
  Percent increase in Fibrosis with respect to the control group: 516.67%
Lung tissue, Group 5, inhalation 0.05 mg/kg per day
  Percent increase in Fibrosis with respect to the control group: 1,127.78%
Lung tissue, Group 6, inhalation 0.1 mg/kg per day
  Percent increase in Fibrosis with respect to the control group: 433.33%
Lung tissue, Group 7, inhalation 0.2 mg/kg per day
  Percent increase in Fibrosis with respect to the control group: 233.33%
Lung tissue, Group 8, inhalation 0.4 mg/kg per day
  Percent increase in Fibrosis with respect to the control group: 161.11%
Nasal cavity tissue, Group 1, oral 10 mg/kg per day
  Percent increase in Fibrosis with respect to the control group: 513.89%
Nasal cavity tissue, Group 2, oral 40 mg/kg per day
  Percent increase in Fibrosis with respect to the control group: 375.00%
Nasal cavity tissue, Group 3, oral 80 mg/kg per day
  Percent increase in Fibrosis with respect to the control group: 300.00%
Nasal cavity tissue, Group 4, oral 100 mg/kg per day
  Percent increase in Fibrosis with respect to the control group: 300.00%
Nasal cavity tissue, Group 5, inhalation 0.05 mg/kg per day
  Percent increase in Fibrosis with respect to the control group: 700.00%
Nasal cavity tissue, Group 6, inhalation 0.1 mg/kg per day
  Percent increase in Fibrosis with respect to the control group: 319.44%
Nasal cavity tissue, Group 7, inhalation 0.2 mg/kg per day
  Percent increase in Fibrosis with respect to the control group: 163.89%
Nasal cavity tissue, Group 8, inhalation 0.4 mg/kg per day
  Percent increase in Fibrosis with respect to the control group: 147.22%
Pharyngeal tissue, Group 1, oral 10 mg/kg per day
  Percent increase in Fibrosis with respect to the control group: 489.54%
Pharyngeal tissue, Group 2, oral 40 mg/kg per day
  Percent increase in Fibrosis with respect to the control group: 457.45%
Pharyngeal tissue, Group 3, oral 80 mg/kg per day
  Percent increase in Fibrosis with respect to the control group: 380.00%
Pharyngeal tissue, Group 4, oral 100 mg/kg per day
  Percent increase in Fibrosis with respect to the control group: 275.00%
Pharyngeal tissue, Group 5, inhalation 0.05 mg/kg per day
  Percent increase in Fibrosis with respect to the control group: 480.30%
Pharyngeal tissue, Group 6, inhalation 0.1 mg/kg per day
  Percent increase in Fibrosis with respect to the control group: 258.34%
Pharyngeal tissue, Group 7, inhalation 0.2 mg/kg per day
  Percent increase in Fibrosis with respect to the control group: 152.23%
Pharyngeal tissue, Group 8, inhalation 0.4 mg/kg per day
  Percent increase in Fibrosis with respect to the control group: 128.32%
